Target: T1, SiE5′NT (Serendipita indica, UniProt G4T774)
T1 construct: gene PIIN_01005; untagged full-length with signal peptide and predicted GPI anchor, 35S promoter, expressed in Arabidopsis thaliana (line 303 1L3); detergent-solubilised membrane protein preparation
T1 sequence (G4T774 20-579): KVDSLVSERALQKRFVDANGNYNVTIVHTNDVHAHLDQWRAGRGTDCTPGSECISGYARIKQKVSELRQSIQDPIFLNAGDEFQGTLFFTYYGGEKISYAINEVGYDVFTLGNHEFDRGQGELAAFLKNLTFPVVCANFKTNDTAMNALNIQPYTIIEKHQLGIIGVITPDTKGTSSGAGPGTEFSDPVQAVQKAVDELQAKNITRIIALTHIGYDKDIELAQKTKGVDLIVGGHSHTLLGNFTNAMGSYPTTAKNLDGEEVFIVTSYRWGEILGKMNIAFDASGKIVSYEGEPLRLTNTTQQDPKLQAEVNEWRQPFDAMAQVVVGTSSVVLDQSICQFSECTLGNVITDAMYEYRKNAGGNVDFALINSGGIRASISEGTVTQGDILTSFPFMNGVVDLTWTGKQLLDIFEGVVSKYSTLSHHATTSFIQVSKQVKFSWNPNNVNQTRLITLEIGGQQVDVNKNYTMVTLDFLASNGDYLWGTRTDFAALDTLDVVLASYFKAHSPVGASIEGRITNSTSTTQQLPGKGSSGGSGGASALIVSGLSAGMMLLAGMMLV
Assay: phosphate release (EnzChek phosphate assay), membrane protein preparation of transgenic A. thaliana versus mCherry control line
Format: biochemical
Conditions: 100 μM substrate, 10 mM Tris/MES, 2 mM MgCl2, 30 mM KCl, pH 6.5

Compound | phosphate release (EnzChek phosphate assay), membrane protein preparation of tra
Nc1ncnc2c1ncn2[C@@H]1O[C@H](COP(=O)(O)O)[C@@H](O)[C@H]1O [AMP] | production of a membrane‐localized enzyme capable of hydrolyzing ATP, ADP, and AMP
Nc1ncnc2c1ncn2[C@@H]1O[C@H](COP(=O)(O)OP(=O)(O)OP(=O)(O)O)[C@@H](O)[C@H]1O [ATP] | production of a membrane‐localized enzyme capable of hydrolyzing ATP, ADP, and AMP
